Experimental data published in patent publication US4356183A, “Antihypertensive 4-thiazolidinecarboxylic acids (pyridyl derivatives)” (Santen Pharmaceutical Co., Ltd., priority 1978, dated 1982).
Where two headings read alike, the source gives them in different places.

Experiments:
[1] = test system: pressor response to angiotensin I; test: Inhibition of pressor response to angiotensin I in rats after oral administration; format: in vivo, rat (male Wistar); conditions: angiotensin I 300 ng/kg i.v.; for Inhibition (%) of pressor response to angiotensin I, 5 min / Inhibition (%) of pressor response to angiotensin I, 15 min / Inhibition (%) of pressor response to angiotensin I, 25 min / Inhibition (%) of pressor response to angiotensin I, 35 min / Inhibition (%) of pressor response to angiotensin I, 45 min / Inhibition (%) of pressor response to angiotensin I, 55 min / Inhibition (%) of pressor response to angiotensin I, 65 min / Inhibition (%) of pressor response to angiotensin I, 75 min / Inhibition (%) of pressor response to angiotensin I, 85 min: dose: 3, 45, 49 1.8 mg/kg, 4, 46 1.3, 50 1.4, 76 2.0, 77 1.5; for Inhibition (%) of pressor response to angiotensin I, 95 min: dose: 45, 49 1.8 mg/kg, 4, 46 1.3, 50 1.4, 76 2.0, 77 1.5
Procedure: Male Wistar strain rats weighing about 200-300 g were used.
Under ether anesthesia, polyethylene cannulae are inserted into carotid arthery and jugular vein. The cannula to carotid artery is connected to an electric transducer, while the cannula to jugular vein is connected to an apparatus for continuous infusion. After the complete recovery from anesthesia, angiotensin I is infused intravenously in a dose of 300 ng/kg by the apparatus for continuous infusion, and the pressor response is recorded by polygraph (Nihon Koden, RM-150).
The compounds of this invention suspended in 0.5% tragacanth solution are administered orally in a dose of 0.3 ml per 100 g of body weight, and the pressor response to angiotensin I infused intravenously is measured with time.
The inhibitory activity of the compounds against angiotensin I-converting enzyme is expressed as the percent inhibition of pressor response to angiotensin I.

[2] = test system: contractile response of isolated guinea pig ileum to angiotensin I; test: Inhibition of contractile response of isolated guinea pig ileum to angiotensin I; format: cell-based; conditions: Cavia porcellus, angiotensin I 0.1 μg/ml; compound added 5 min before; 30° C.; read-out: Angiotensin I IC50 (50% inhibition of angiotensin I activity inducing the contraction of guinea pig ileum)
From the text: As the method of measurement of angiotensin I-converting enzyme activity, bioassay for the contractile response of isolated smooth muscle or the pressor response of normal animals and biochemical assay for the enzyme isolated from lung or other organs of animals are known. The former is found more advantageous than the latter for the examination of the convertion of angiotensin I to angiotensin II in vivo.
In the present study, therefore, we adopted the bioassay for contractile response of isolated guinea pig ileum to angiotensin I.
(§1) Measurement of inhibitory activity of angiotensin I-converting enzyme
(§2) Isolated guinea pig ileum was suspended in the organ bath containing 20 ml of Tyrode's solution of 30° C. gassed with 95% O2 +5% CO2. The contraction induced by the addition of angiotensin I (0.1 μg/ml) at intervals of 10 minutes was recorded on a recticorder (Nihon Koden) for 90 seconds using FD pick up (ST-1T-H, Nihon Koden).
(§3) The test compounds were added to the bath 5 minutes before the addition of angiotensin I.
The inhibitory activity of angiotensin I-converting enzyme was calculated by the following formula. [formula] A: contractile intensity of angiotensin I before addition of the compound B: contractile intensity of angiotensin I after addition of the compound

[3] = test system: contractile response to bradykinin (isolated guinea pig ileum); test: Augmentation of contractile response of isolated guinea pig ileum to bradykinin; format: cell-based; conditions: Cavia porcellus, bradykinin 0.005 μg/ml; compound added 5 min before; 30° C.; read-out: Bradykinin AC50 (50% augmentation of bradykinin activity inducing the contraction of guinea pig ileum)
Procedure: as §2, §3
From the fact that kininase II, which destroys bradykinin having contractive action on isolated guinea pig ileum, is thought to be identical with angiotensin I-converting enzyme, augmentation of the contractile response to bradykinin by test compounds was examined by using bradykinin (0.005 μg/ml) in place of angiotensin I according to the above mentioned method.

[4] = molecular target: T1, angiotensin I-converting enzyme (Oryctolagus cuniculus, UniProt P12822); test: Inhibition of angiotensin I-converting enzyme by spectrophotometry (HHL substrate); format: biochemical; conditions: enzyme from rabbit lung; 5 mM HHL; pH 8.3; 37° C., 30 min
T1 construct: angiotensin I-converting enzyme extracted from rabbit lung; from tissue; host or cells: rabbit lung
T1 sequence (P12822 34-1310): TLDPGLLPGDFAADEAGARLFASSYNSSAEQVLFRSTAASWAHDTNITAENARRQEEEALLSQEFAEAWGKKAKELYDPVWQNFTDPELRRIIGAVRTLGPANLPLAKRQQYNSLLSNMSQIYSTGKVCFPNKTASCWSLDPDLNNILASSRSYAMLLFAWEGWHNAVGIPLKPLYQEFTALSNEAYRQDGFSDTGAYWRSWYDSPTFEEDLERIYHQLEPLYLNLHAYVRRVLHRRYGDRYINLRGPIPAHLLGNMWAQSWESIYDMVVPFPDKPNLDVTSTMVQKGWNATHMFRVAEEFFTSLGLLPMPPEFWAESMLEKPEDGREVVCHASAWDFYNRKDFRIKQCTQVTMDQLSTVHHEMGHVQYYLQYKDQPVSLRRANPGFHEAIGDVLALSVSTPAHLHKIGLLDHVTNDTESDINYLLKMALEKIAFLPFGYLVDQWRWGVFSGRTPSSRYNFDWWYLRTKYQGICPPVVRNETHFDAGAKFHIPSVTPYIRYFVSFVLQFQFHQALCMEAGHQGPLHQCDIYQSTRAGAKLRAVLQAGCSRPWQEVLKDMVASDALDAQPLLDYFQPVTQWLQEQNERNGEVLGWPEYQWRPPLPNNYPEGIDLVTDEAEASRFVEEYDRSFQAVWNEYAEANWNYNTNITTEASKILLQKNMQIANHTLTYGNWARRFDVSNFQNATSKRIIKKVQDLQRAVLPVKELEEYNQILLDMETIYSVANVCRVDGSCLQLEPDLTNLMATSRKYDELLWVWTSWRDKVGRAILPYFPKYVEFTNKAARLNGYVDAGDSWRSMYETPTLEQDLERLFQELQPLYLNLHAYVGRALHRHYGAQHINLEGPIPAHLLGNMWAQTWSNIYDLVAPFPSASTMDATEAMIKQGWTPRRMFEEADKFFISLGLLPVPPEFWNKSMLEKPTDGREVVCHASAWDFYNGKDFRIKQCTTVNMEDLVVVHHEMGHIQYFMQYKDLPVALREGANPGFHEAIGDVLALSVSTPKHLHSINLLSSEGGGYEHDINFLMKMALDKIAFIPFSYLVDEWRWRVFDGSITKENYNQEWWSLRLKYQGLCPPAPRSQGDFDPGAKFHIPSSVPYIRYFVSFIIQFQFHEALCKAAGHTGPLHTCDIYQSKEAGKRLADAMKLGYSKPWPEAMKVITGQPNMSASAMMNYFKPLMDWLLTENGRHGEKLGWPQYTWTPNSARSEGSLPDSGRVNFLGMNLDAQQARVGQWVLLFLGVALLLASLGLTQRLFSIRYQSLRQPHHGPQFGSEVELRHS
Procedure: That is, the absorbance of hippuric acid was measured, which is liberated by incubating hippuryl-L-histidyl-L-leucine (HHL) as substrate in the presence of angiotensin I-converting enzyme extracted from rabbit lung.
as §1
The reaction mixture is as follows:
100 mM phosphate buffer (pH 8.3)
10^-3 ~10^-9 M enzyme inhibitor
0.25 ml of the above mixture was incubated at 37° C. for 30 minutes and the reaction was stopped by adding 0.25 ml of 1 N hydrochloric acid. To this solution, 1.5 ml of ethyl acetate was added in order to extract hippuric acid. 1.0 ml of ethyl acetate layer was collected and evaporated to dryness, and the residue obtained was dissolved in 1.0 ml of water.
The inhibitory activity of angiotensin I-converting enzyme was calculated by the following formula: [formula]

Acute toxicity test = conditions: rat, in vivo
Procedure: The male ddy-SLC strain […] (4 weeks of age, weighing 19-21 g) were placed in a breeding room of constant temperature and humidity (23°±1° C., 55±5%) and fed freely pellet diet (CE-2, Clea Japan Inc.) and water ad. libitum for a week. The rats showing the normal growth were selected for the experiment.
Test compounds are suspended in 0.5% tragacanth solution (p.o.) or dissolved in distilled water (i.v., i.p.), and administered in a dose of 0.5 ml/20 g body weight.

C[C@H](CS)C(=O)N1C(C2CCCCC2)SC[C@H]1C(=O)O (some centres unmarked) [Compound 4]
Inhibition (%) of pressor response to angiotensin I, 5 min [1]: 46.7% | Inhibition (%) of pressor response to angiotensin I, 15 min [1]: 46.5% | Inhibition (%) of pressor response to angiotensin I, 25 min [1]: 37.2% | Inhibition (%) of pressor response to angiotensin I, 35 min [1]: 32.2% | Inhibition (%) of pressor response to angiotensin I, 45 min [1]: 28.8% | Inhibition (%) of pressor response to angiotensin I, 55 min [1]: 27.5% | Inhibition (%) of pressor response to angiotensin I, 65 min [1]: 27.5% | Inhibition (%) of pressor response to angiotensin I, 75 min [1]: 13.8% | Inhibition (%) of pressor response to angiotensin I, 85 min [1]: 14.5% | Inhibition (%) of pressor response to angiotensin I, 95 min [1]: 10.3% | IC50 [2]: 50 nM | AC50 [3]: 2 nM | IC50 [4]: 120 nM

C[C@H](CS)C(=O)N1C(c2ccccc2)SC[C@H]1C(=O)O (some centres unmarked) [Compound 18]
LD50 (Acute toxicity test; ip, dissolved in distilled water, pH 7, read-out: LD i.p.): > 1000 mg/kg | IC50 [2]: 190 nM | AC50 [3]: 3.1 nM | IC50 [4]: 60 nM

O=C(O)[C@@H]1CSC(c2ccccc2O)N1C(=O)CCS (stereo partly drawn) [Compound 46, (4R)-2-(2-Hydroxyphenyl)-3-(3-mercaptopropanoyl)-4-thiazolidinecarboxylic acid]
LD50 (Acute toxicity test; po, suspended in 0.5% tragacanth solution, read-out: LD50 p.o.): > 10000 mg/kg | Inhibition (%) of pressor response to angiotensin I, 5 min [1]: 53.3% | Inhibition (%) of pressor response to angiotensin I, 15 min [1]: 62.9% | Inhibition (%) of pressor response to angiotensin I, 25 min [1]: 64.7% | Inhibition (%) of pressor response to angiotensin I, 35 min [1]: 63.7% | Inhibition (%) of pressor response to angiotensin I, 45 min [1]: 54.0% | Inhibition (%) of pressor response to angiotensin I, 55 min [1]: 49.3% | Inhibition (%) of pressor response to angiotensin I, 65 min [1]: 47.7% | Inhibition (%) of pressor response to angiotensin I, 75 min [1]: 38.8% | Inhibition (%) of pressor response to angiotensin I, 85 min [1]: 34.0% | Inhibition (%) of pressor response to angiotensin I, 95 min [1]: 30.0% | Inhibition (%) of pressor response to angiotensin I, 105 min ([1]; 105 min, dose: 45, 49 1.8 mg/kg, 46 1.3, 50 1.4, 76 2.0, 77 1.5): 30.0% | Inhibition (%) of pressor response to angiotensin I, 115 min ([1]; 115 min, dose: 45, 49 1.8 mg/kg, 46 1.3, 50 1.4, 76 2.0, 77 1.5): 31.0% | IC50 [2]: 19 nM | AC50 [3]: 0.3 nM
